The NIST ThermoML archive (doi:10.1016/j.fluid.2017.09.014)

Assay: xn = mol fraction of the nth substance listed
Conditions: Vibrating tube method, x2 = 0.9503

O=S=O [sulfur dioxide] + O=C=O
Conditions | mass density [kg/m3]
272.65 K, 226 kPa, Gas | 4.8
272.65 K, 407 kPa, Gas | 8.5
272.65 K, 503 kPa, Gas | 10.6
272.65 K, 752 kPa, Gas | 16.2
272.65 K, 1013 kPa, Gas | 22.1
272.65 K, 1252 kPa, Gas | 27.9
272.65 K, 1506 kPa, Gas | 34.4
272.65 K, 1752 kPa, Gas | 40.9
272.65 K, 1998 kPa, Gas | 47.9
273.54 K, 25506 kPa, Liquid | 1065.1
273.54 K, 26999 kPa, Liquid | 1069.9
273.54 K, 29024 kPa, Liquid | 1076.3
273.54 K, 29514 kPa, Liquid | 1077.7
273.54 K, 30524 kPa, Liquid | 1080.9
273.54 K, 31975 kPa, Liquid | 1085.1
273.54 K, 32491 kPa, Liquid | 1086.7
273.54 K, 33027 kPa, Liquid | 1088.3
273.54 K, 33521 kPa, Liquid | 1089.7
273.54 K, 34032 kPa, Liquid | 1091.1
273.54 K, 34491 kPa, Liquid | 1092.3
273.54 K, 35043 kPa, Liquid | 1093.9
273.54 K, 35534 kPa, Liquid | 1095.1
273.54 K, 36045 kPa, Liquid | 1096.7
273.54 K, 36490 kPa, Liquid | 1097.6
273.54 K, 37047 kPa, Liquid | 1099
273.54 K, 37529 kPa, Liquid | 1100.5
273.54 K, 38033 kPa, Liquid | 1101.8
273.54 K, 38558 kPa, Liquid | 1103.1
273.54 K, 41723 kPa, Liquid | 1110.7
273.55 K, 20535 kPa, Liquid | 1047.9
273.55 K, 24032 kPa, Liquid | 1060.4
273.55 K, 24523 kPa, Liquid | 1061.9
273.55 K, 25039 kPa, Liquid | 1063.6
273.55 K, 26016 kPa, Liquid | 1066.9
273.55 K, 26484 kPa, Liquid | 1068.3
273.55 K, 27554 kPa, Liquid | 1071.7
273.55 K, 28041 kPa, Liquid | 1073
273.55 K, 28539 kPa, Liquid | 1074.9
273.55 K, 30026 kPa, Liquid | 1079.4
273.55 K, 30952 kPa, Liquid | 1082.2
273.55 K, 31482 kPa, Liquid | 1083.6
273.55 K, 38992 kPa, Liquid | 1104
273.55 K, 39553 kPa, Liquid | 1105.7
273.55 K, 40023 kPa, Liquid | 1106.6
273.55 K, 40508 kPa, Liquid | 1107.8
273.55 K, 41016 kPa, Liquid | 1109
273.56 K, 12509 kPa, Liquid | 1014.7
273.56 K, 13012 kPa, Liquid | 1017.2
273.56 K, 13506 kPa, Liquid | 1019.3
273.56 K, 17514 kPa, Liquid | 1036.2
273.56 K, 18049 kPa, Liquid | 1038.2
273.56 K, 18515 kPa, Liquid | 1040.1
273.56 K, 19000 kPa, Liquid | 1042.1
273.56 K, 19509 kPa, Liquid | 1044
273.56 K, 20028 kPa, Liquid | 1046
273.56 K, 21029 kPa, Liquid | 1049.7
273.56 K, 21519 kPa, Liquid | 1051.3
273.56 K, 21993 kPa, Liquid | 1053
273.56 K, 22501 kPa, Liquid | 1054.9
273.56 K, 23496 kPa, Liquid | 1058.4
273.56 K, 41601 kPa, Liquid | 1110.4
273.57 K, 9944 kPa, Liquid | 1001.9
273.57 K, 10516 kPa, Liquid | 1004.5
273.57 K, 11003 kPa, Liquid | 1007
273.57 K, 11502 kPa, Liquid | 1009.5
273.57 K, 12005 kPa, Liquid | 1012.2
273.57 K, 14518 kPa, Liquid | 1023.6
273.57 K, 14951 kPa, Liquid | 1025.4
273.57 K, 15999 kPa, Liquid | 1029.8
273.57 K, 16500 kPa, Liquid | 1031.9
273.57 K, 17024 kPa, Liquid | 1034.2
273.57 K, 23015 kPa, Liquid | 1056.6
273.58 K, 8503 kPa, Liquid | 993.8
273.58 K, 9008 kPa, Liquid | 996.7
273.58 K, 9518 kPa, Liquid | 999.7
273.58 K, 15602 kPa, Liquid | 1028.1
273.6 K, 4001 kPa, Liquid | 964.9
273.6 K, 5521 kPa, Liquid | 975.5
273.6 K, 6005 kPa, Liquid | 978.7
273.6 K, 6503 kPa, Liquid | 981.9
273.6 K, 7034 kPa, Liquid | 984.6
273.6 K, 7688 kPa, Liquid | 987.5
273.6 K, 8003 kPa, Liquid | 990.6
273.61 K, 4518 kPa, Liquid | 968.2
273.61 K, 5013 kPa, Liquid | 972.1
282.65 K, 800 kPa, Gas | 16.5
282.65 K, 1249 kPa, Gas | 26.3
282.66 K, 120 kPa, Gas | 2.5
282.66 K, 211 kPa, Gas | 4.3
282.66 K, 301 kPa, Gas | 6.1
282.66 K, 408 kPa, Gas | 8.5
282.66 K, 511 kPa, Gas | 10.6
282.66 K, 608 kPa, Gas | 12.3
282.66 K, 1009 kPa, Gas | 21.1
282.66 K, 1509 kPa, Gas | 32.8
282.66 K, 1705 kPa, Gas | 37.5
282.66 K, 1909 kPa, Gas | 42.7
282.66 K, 2010 kPa, Gas | 45.2
282.66 K, 2199 kPa, Gas | 50.5
282.66 K, 2508 kPa, Gas | 59.6
282.66 K, 2702 kPa, Gas | 65.5
282.66 K, 3008 kPa, Gas | 76
283.31 K, 27537 kPa, Liquid | 1038.9
283.31 K, 34500 kPa, Liquid | 1062.8
283.31 K, 35516 kPa, Liquid | 1065.8
283.31 K, 36037 kPa, Liquid | 1067.5
283.31 K, 36515 kPa, Liquid | 1068.6
283.31 K, 37578 kPa, Liquid | 1072.1
283.31 K, 38061 kPa, Liquid | 1073.3
283.32 K, 5005 kPa, Liquid | 910.4
